Data as given in patent publication US9302999B2, “Substituted triazoles as herbicides” (E. I. DU PONT DE NEMOURS AND COMPANY, priority 2012, dated 2016).

What was measured:
Assay type in all cases: in vivo
[1] = system: large crabgrass (Digitaria sanguinalis); experiment: Test C pre-/postemergence: large crabgrass
Method in brief: (§1)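 Preemergence on seeds in loam/sand, postemergence on 2–18 cm (1–4-leaf) plants in peat-based medium; compounds in non-phytotoxic solvent with surfactant. After 13–15 days in greenhouse, visual rating versus controls, 0 (no effect) to 100 (complete control).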

[2] = system: foxtail, giant (giant foxtail, Setaria faberii); experiment: Test C pre-/postemergence: foxtail, giant
Method in brief: as §1

kochia (Kochia scoparia) = experiment: Test C pre-/postemergence: kochia
Method in brief: as §1

[3] = system: morningglory (Ipomoea coccinea); experiment: Test C pre-/postemergence: morningglory
Method in brief: as §1

[4] = system: galium (catchweed bedstraw, Galium aparine); experiment: Test C pre-/postemergence: galium
Method in brief: as §1

corn (Zea mays) = experiment: Test C pre-/postemergence: corn
Method in brief: as §1

[5] = system: johnsongrass (Sorghum halepense); experiment: Test C pre-/postemergence: johnsongrass
Method in brief: as §1

[6] = system: ryegrass, Italian (Italian ryegrass, Lolium multiflorum); experiment: Test C pre-/postemergence: ryegrass, Italian
Method in brief: as §1

[7] = system: velvetleaf (Abutilon theophrasti); experiment: Test C pre-/postemergence: velvetleaf
Method in brief: as §1

[8] = system: ducksalad (Heteranthera limosa); experiment: Test B flooded paddy: ducksalad; conditions: Flood; 250 g ai/ha; applied to paddy water at 2-leaf stage; visually evaluated after 13 to 15 days
Method in brief: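 Plants were grown to the 2-leaf stage, then pots were flooded to 3 cm above the soil and compounds were applied directly into the paddy water. Water depth was held for the whole test; after 13 to 15 days in a greenhouse, injury was visually rated against untreated controls (0 = no effect, 100 = complete control).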

wild oat (Avena fatua) = experiment: Test C pre-/postemergence: wild oat
Method in brief: as §1

[9] = Postemergence, 31 g ai/ha, scale 0 to 100 (0 no effect, 100 complete control)
[10] = Postemergence, 62 g ai/ha, scale 0 to 100 (0 no effect, 100 complete control)
[11] = Postemergence, 125 g ai/ha, scale 0 to 100, 0 no effect, 100 complete control
[12] = Postemergence, 250 g ai/ha, scale 0 to 100
[13] = Preemergence, 31 g ai/ha, scale of 0 to 100, 0 is no effect, 100 is complete control
[14] = Preemergence, 62 g ai/ha, scale of 0 to 100, 0 is no effect, 100 is complete control
[15] = Preemergence, 125 g ai/ha, scale 0 to 100, 0 no effect, 100 complete control
[16] = Preemergence, 250 g ai/ha, scale 0 to 100, 0 no effect, 100 complete control

COc1nn(-c2ccc(C(F)(F)F)cc2)nc1Cc1ccnc(C(F)F)c1 [Compound 138]
Plant response rating, Crabgrass, Large [1, 9]: 45 | Plant response rating, Crabgrass, Large [1, 10]: 50 | Plant response rating, Crabgrass, Large [1, 11]: 55 | Plant response rating, Crabgrass, Large [1, 12]: 95 | Plant response rating, Crabgrass, Large [1, 13]: 98 | Plant response rating, Crabgrass, Large [1, 14]: 100 | Plant response rating, Crabgrass, Large [1, 15]: 100 | Plant response rating, Crabgrass, Large [1, 16]: 100 | Plant response rating, Foxtail, Giant [2, 9]: 20 | Plant response rating, Foxtail, Giant [2, 10]: 55 | Plant response rating, Foxtail, Giant [2, 11]: 55 | Plant response rating, Foxtail, Giant [2, 12]: 95 | Plant response rating, Foxtail, Giant [2, 13]: 98 | Plant response rating, Foxtail, Giant [2, 14]: 100 | Plant response rating, Foxtail, Giant [2, 15]: 100 | Plant response rating, Foxtail, Giant [2, 16]: 100 | Plant response rating, Kochia (kochia (Kochia scoparia); [9]): 95 | Plant response rating, Kochia (kochia (Kochia scoparia); [10]): 95 | Plant response rating, Kochia (kochia (Kochia scoparia); [11]): 98 | Plant response rating, Kochia (kochia (Kochia scoparia); [12]): 98 | Plant response rating, Kochia (kochia (Kochia scoparia); [13]): 55 | Plant response rating, Kochia (kochia (Kochia scoparia); [14]): 65 | Plant response rating, Kochia (kochia (Kochia scoparia); [15]): 85 | Plant response rating, Kochia (kochia (Kochia scoparia); [16]): 90 | Plant response rating, Morningglory [3, 9]: 90 | Plant response rating, Morningglory [3, 10]: 90 | Plant response rating, Morningglory [3, 11]: 98 | Plant response rating, Morningglory [3, 12]: 98 | Plant response rating, Morningglory [3, 13]: 15 | Plant response rating, Morningglory [3, 14]: 55 | Plant response rating, Morningglory [3, 15]: 65 | Plant response rating, Morningglory [3, 16]: 98 | Plant response rating, Galium [4, 9]: 85 | Plant response rating, Galium [4, 10]: 90 | Plant response rating, Galium [4, 12]: 90 | Plant response rating, Galium [4, 13]: 95 | Plant response rating, Galium [4, 14]: 100 | Plant response rating, Galium [4, 15]: 100 | Plant response rating, Galium [4, 16]: 100 | Plant response rating, Corn (corn (Zea mays); [13]): 20 | Plant response rating, Corn (corn (Zea mays); [14]): 30 | Plant response rating, Corn (corn (Zea mays); [15]): 40 | Plant response rating, Corn (corn (Zea mays); [16]): 55 | Plant response rating, Johnsongrass [5, 9]: 45 | Plant response rating, Johnsongrass [5, 10]: 45 | Plant response rating, Johnsongrass [5, 11]: 45 | Plant response rating, Johnsongrass [5, 12]: 95 | Plant response rating, Johnsongrass [5, 13]: 45 | Plant response rating, Johnsongrass [5, 14]: 85 | Plant response rating, Johnsongrass [5, 15]: 98 | Plant response rating, Johnsongrass [5, 16]: 100 | Plant response rating, Ryegrass, Italian [6, 9]: 40 | Plant response rating, Ryegrass, Italian [6, 10]: 55 | Plant response rating, Ryegrass, Italian [6, 11]: 60 | Plant response rating, Ryegrass, Italian [6, 12]: 75 | Plant response rating, Ryegrass, Italian [6, 13]: 10 | Plant response rating, Ryegrass, Italian [6, 14]: 40 | Plant response rating, Ryegrass, Italian [6, 15]: 70 | Plant response rating, Ryegrass, Italian [6, 16]: 90 | Plant response rating, Velvetleaf [7, 9]: 50 | Plant response rating, Velvetleaf [7, 10]: 75 | Plant response rating, Velvetleaf [7, 11]: 80 | Plant response rating, Velvetleaf [7, 12]: 90 | Plant response rating, Velvetleaf [7, 13]: 5 | Plant response rating, Velvetleaf [7, 15]: 55 | Plant response rating, Velvetleaf [7, 16]: 98 | Plant response rating, Ducksalad (0 to 100 scale, 0 is no effect, 100 is complete control) [8]: 90 | Plant response rating, Oat, Wild (wild oat (Avena fatua); [9]): 55 | Plant response rating, Oat, Wild (wild oat (Avena fatua); [10]): 60 | Plant response rating, Oat, Wild (wild oat (Avena fatua); [11]): 80 | Plant response rating, Oat, Wild (wild oat (Avena fatua); [12]): 98 | Plant response rating, Oat, Wild (wild oat (Avena fatua); [13]): 80 | Plant response rating, Oat, Wild (wild oat (Avena fatua); [14]): 85 | Plant response rating, Oat, Wild (wild oat (Avena fatua); [15]): 95 | Plant response rating, Oat, Wild (wild oat (Avena fatua); [16]): 95

COc1nn(-c2cccc(F)c2)nc1Cc1ccnc(C(F)(F)F)c1 [Compound 139]
Plant response rating, Crabgrass, Large [1, 9]: 40 | Plant response rating, Crabgrass, Large [1, 10]: 45 | Plant response rating, Crabgrass, Large [1, 11]: 55 | Plant response rating, Crabgrass, Large [1, 12]: 80 | Plant response rating, Crabgrass, Large [1, 13]: 100 | Plant response rating, Crabgrass, Large [1, 14]: 100 | Plant response rating, Crabgrass, Large [1, 15]: 100 | Plant response rating, Crabgrass, Large [1, 16]: 100 | Plant response rating, Foxtail, Giant [2, 9]: 15 | Plant response rating, Foxtail, Giant [2, 10]: 30 | Plant response rating, Foxtail, Giant [2, 11]: 40 | Plant response rating, Foxtail, Giant [2, 12]: 75 | Plant response rating, Foxtail, Giant [2, 13]: 95 | Plant response rating, Foxtail, Giant [2, 14]: 100 | Plant response rating, Foxtail, Giant [2, 15]: 100 | Plant response rating, Foxtail, Giant [2, 16]: 100 | Plant response rating, Kochia (kochia (Kochia scoparia); [9]): 85 | Plant response rating, Kochia (kochia (Kochia scoparia); [10]): 85 | Plant response rating, Kochia (kochia (Kochia scoparia); [11]): 90 | Plant response rating, Kochia (kochia (Kochia scoparia); [12]): 90 | Plant response rating, Kochia (kochia (Kochia scoparia); [13]): 65 | Plant response rating, Kochia (kochia (Kochia scoparia); [14]): 75 | Plant response rating, Kochia (kochia (Kochia scoparia); [15]): 90 | Plant response rating, Kochia (kochia (Kochia scoparia); [16]): 100 | Plant response rating, Morningglory [3, 9]: 55 | Plant response rating, Morningglory [3, 10]: 60 | Plant response rating, Morningglory [3, 11]: 60 | Plant response rating, Morningglory [3, 12]: 70 | Plant response rating, Morningglory [3, 13]: 15 | Plant response rating, Morningglory [3, 14]: 15 | Plant response rating, Morningglory [3, 15]: 35 | Plant response rating, Morningglory [3, 16]: 55 | Plant response rating, Galium [4, 9]: 60 | Plant response rating, Galium [4, 10]: 70 | Plant response rating, Galium [4, 11]: 80 | Plant response rating, Galium [4, 12]: 80 | Plant response rating, Galium [4, 13]: 5 | Plant response rating, Galium [4, 14]: 80 | Plant response rating, Galium [4, 15]: 85 | Plant response rating, Galium [4, 16]: 95 | Plant response rating, Corn (corn (Zea mays); [10]): 25 | Plant response rating, Corn (corn (Zea mays); [11]): 55 | Plant response rating, Corn (corn (Zea mays); [12]): 60 | Plant response rating, Corn (corn (Zea mays); [13]): 0 | Plant response rating, Corn (corn (Zea mays); [14]): 0 | Plant response rating, Corn (corn (Zea mays); [15]): 10 | Plant response rating, Corn (corn (Zea mays); [16]): 30 | Plant response rating, Johnsongrass [5, 9]: 30 | Plant response rating, Johnsongrass [5, 10]: 50 | Plant response rating, Johnsongrass [5, 11]: 80 | Plant response rating, Johnsongrass [5, 12]: 80 | Plant response rating, Johnsongrass [5, 13]: 15 | Plant response rating, Johnsongrass [5, 14]: 45 | Plant response rating, Johnsongrass [5, 15]: 100 | Plant response rating, Johnsongrass [5, 16]: 100 | Plant response rating, Ryegrass, Italian [6, 9]: 25 | Plant response rating, Ryegrass, Italian [6, 10]: 30 | Plant response rating, Ryegrass, Italian [6, 11]: 30 | Plant response rating, Ryegrass, Italian [6, 12]: 40 | Plant response rating, Ryegrass, Italian [6, 13]: 35 | Plant response rating, Ryegrass, Italian [6, 14]: 60 | Plant response rating, Ryegrass, Italian [6, 16]: 90 | Plant response rating, Velvetleaf [7, 9]: 20 | Plant response rating, Velvetleaf [7, 10]: 35 | Plant response rating, Velvetleaf [7, 11]: 70 | Plant response rating, Velvetleaf [7, 12]: 75 | Plant response rating, Velvetleaf [7, 13]: 0 | Plant response rating, Velvetleaf [7, 14]: 10 | Plant response rating, Velvetleaf [7, 15]: 40 | Plant response rating, Velvetleaf [7, 16]: 40 | Plant response rating, Ducksalad (0 to 100 scale, 0 is no effect, 100 is complete control) [8]: 70 | Plant response rating, Oat, Wild (wild oat (Avena fatua); [9]): 40 | Plant response rating, Oat, Wild (wild oat (Avena fatua); [10]): 50 | Plant response rating, Oat, Wild (wild oat (Avena fatua); [11]): 60 | Plant response rating, Oat, Wild (wild oat (Avena fatua); [12]): 80 | Plant response rating, Oat, Wild (wild oat (Avena fatua); [13]): 10 | Plant response rating, Oat, Wild (wild oat (Avena fatua); [14]): 50 | Plant response rating, Oat, Wild (wild oat (Avena fatua); [16]): 85

Cc1nn(-c2ccnc(Cl)c2)nc1Cc1ccnc(C(F)(F)F)c1 [Compound 141]
Plant response rating, Crabgrass, Large [1, 9]: 20 | Plant response rating, Crabgrass, Large [1, 10]: 55 | Plant response rating, Crabgrass, Large [1, 11]: 80 | Plant response rating, Crabgrass, Large [1, 12]: 95 | Plant response rating, Foxtail, Giant [2, 9]: 10 | Plant response rating, Foxtail, Giant [2, 10]: 20 | Plant response rating, Foxtail, Giant [2, 11]: 45 | Plant response rating, Foxtail, Giant [2, 12]: 80 | Plant response rating, Kochia (kochia (Kochia scoparia); [9]): 85 | Plant response rating, Kochia (kochia (Kochia scoparia); [10]): 90 | Plant response rating, Kochia (kochia (Kochia scoparia); [11]): 90 | Plant response rating, Kochia (kochia (Kochia scoparia); [12]): 90 | Plant response rating, Morningglory [3, 9]: 85 | Plant response rating, Morningglory [3, 10]: 85 | Plant response rating, Morningglory [3, 11]: 95 | Plant response rating, Galium [4, 9]: 85 | Plant response rating, Galium [4, 10]: 85 | Plant response rating, Galium [4, 11]: 90 | Plant response rating, Galium [4, 12]: 90 | Plant response rating, Corn (corn (Zea mays); [9]): 45 | Plant response rating, Corn (corn (Zea mays); [10]): 45 | Plant response rating, Corn (corn (Zea mays); [11]): 55 | Plant response rating, Corn (corn (Zea mays); [12]): 60 | Plant response rating, Johnsongrass [5, 9]: 10 | Plant response rating, Johnsongrass [5, 10]: 10 | Plant response rating, Johnsongrass [5, 11]: 15 | Plant response rating, Johnsongrass [5, 12]: 15 | Plant response rating, Ryegrass, Italian [6, 9]: 15 | Plant response rating, Ryegrass, Italian [6, 10]: 30 | Plant response rating, Ryegrass, Italian [6, 11]: 50 | Plant response rating, Ryegrass, Italian [6, 12]: 70 | Plant response rating, Velvetleaf [7, 9]: 40 | Plant response rating, Velvetleaf [7, 10]: 55 | Plant response rating, Velvetleaf [7, 11]: 60 | Plant response rating, Velvetleaf [7, 12]: 60 | Plant response rating, Ducksalad (0 to 100 scale, 0 is no effect, 100 is complete control) [8]: 85 | Plant response rating, Oat, Wild (wild oat (Avena fatua); [9]): 10 | Plant response rating, Oat, Wild (wild oat (Avena fatua); [10]): 15 | Plant response rating, Oat, Wild (wild oat (Avena fatua); [11]): 45 | Plant response rating, Oat, Wild (wild oat (Avena fatua); [12]): 70
